# Values of other authors in patent US9220771B2, “Peptide for use in the treatment of breast cancer and/or bone metastases” (MERCK PATENT GMBH, priority 2010, dated 2015).
# Tested on: HER2-positive advanced BRCA
# Settings: in combination with capecitabine, 2nd line; cited from earlier work
compound,measurement,value
CS(=O)(=O)CCNCc1ccc(-c2ccc3ncnc(Nc4ccc(OCc5cccc(F)c5)c(Cl)c4)c3c2)o1 [Lapatinib],improvement of median time to progression compared to capecitabine alone,4 months
